Measurements taken from patent US5216005A, “Immunosuppressive analogues and derivatives of succinylacetone” (priority 1990, dated 1993).
pIC50: −log10 of the molar value.

Columns and labels:
[1] = system: IL-2 (human lymphoid cells); assay: IL-2 production in primary mixed lymphocyte reaction (HT-2 cell assay); assay type: cell-based; design: IL-2: unit not given here; conditions: for IL-2: 1° MLR
Method: Derivatives of succinylacetone were tested for immunosuppressive activity in several different types of assay systems. The first consisted of measuring the amounts of interleukin-2 (IL-2), and interferon-γ (IFN-γ) produced by human lymphoid cells in a mixed lymphocyte reaction. Low levels of these molecules in the reaction mixture indicate that the immune system is being suppressed by the subject succinylacetone derivatives. IL-2 was measured by enumerating the number of viable HT-2 cells found after an 18-24 hours period. HT-2 cells are a mouse IL-2 dependent cell line which die in the absence of IL-2. The assay is described by Gillis et al., J. of Immunol. […] The mixed lymphocyte reaction assay can be carried out by techniques well known to those skilled in the art. L. Hudson and F. C. Huy, Practical Immunology, p. […] Briefly this consists of isolating lymphocytes from human peripheral blood by standard density gradient centrifugation techniques from two separate individuals. Approximately 2×10^5 lymphocytes of each individual are combined to yield a total of 4×10^5 lymphocytes per culture. All procedures are carried out under sterile conditions, and the lymphocytes are isolated and kept in physiologically compatible solutions. To the mixture of lymphocytes is added a desired amount of an appropriate succinylacetone derivative, and after different times an aliquot of the mixture is removed and assayed for IL-2 or IFN-γ, or ^[…] is measured.

human lymphocytes = assay: tritiated thymidine uptake in primary mixed lymphocyte reaction; assay type: cell-based; conditions: for CPM ± SD: 1° MLR
From the text: The in vitro mixed lymphocyte assay described below is presently employed in the clinical setting as an indicator of histocompatibility, and is premised on the transformation of resting genetically dissimilar lymphocytes into cells which synthesize DNA and undergo proliferation.
The mixed lymphocyte reaction assay can be carried out by techniques well known to those skilled in the art. L. Hudson and F. C. Huy, Practical Immunology, p. 260, Blackwell Scientific Publications (1976). Briefly this consists of isolating lymphocytes from human peripheral blood by standard density gradient centrifugation techniques from two separate individuals. Approximately 2×10^5 lymphocytes of each individual are combined to yield a total of 4×10^5 lymphocytes per culture. All procedures are carried out under sterile conditions, and the lymphocytes are isolated and kept in physiologically compatible solutions. To the mixture of lymphocytes is added a desired amount of an appropriate succinylacetone derivative, and after different times an aliquot of the mixture is removed and assayed for IL-2 or IFN-γ, or ^3 H-T is measured.
As mentioned above, one measure of an immune response as reflected in a mixed lymphocyte assay is the stimulation of DNA synthesis, and a concomitant increase in cell number. Thus, to further ascertain the immunosuppressive activity of succinylacetonyl-proline-NH-PEG, its effect on inhibition of thymocyte growth, as detected by uptake of tritiated thymidine, was assayed.

human lymphoid cells = assay: tritiated thymidine uptake in secondary mixed lymphocyte reaction; assay type: cell-based; conditions: 2°-MLR; for inhibition at 740 µM / inhibition at 2200 µM / inhibition at 6700 µM / inhibition at 20000 µM: Homo sapiens, Lymphocyte
Method: In addition to testing the immunosuppressive activities of succinylacetone derivatives in a primary mixed lymphocyte reaction, or a phytohemagglutinin stimulation assay, two of the derivatives, succinylacetone methyl ester and methyl 4-acetyl-5-oxohexanoate, were tested in a secondary mixed lymphocyte reaction assay. The secondary mixed lymphocyte assays differs from the primary mixed lymphocyte reaction assays in that they employ many more primed responder cells that are responsive to the primary stimulating cells. The presence of such responsive cells is a reflection of immunological memory in an ongoing immunological response. […] These cells are then used in the secondary mixed lymphocyte reaction. It is worth noting that because a secondary mixed lymphocyte reaction is greatly enriched for responsive cells, fewer cells can be used in the secondary assay.
It will be appreciated that described therein is a method for carrying out secondary lymphocyte reactions using mouse cells, however such methods are generally applicable to performing secondary mixed lymphocyte reactions using human cells with modifications that are well known to those skilled in the art. […] The assays were conducted in duplicate involving lymphoid cells isolated from two individuals.

[2] = system: adjuvant induced arthritis; assay: adjuvant induced arthritis in rats, overall arthritis score; intraarticular right paw, per kg: succinylacetone 325 μg, methyl ester 150 μg, 4-acetyl-5-oxohexanoate 560 μg; assay type: in vivo, rat

SMILES: COC(=O)CCC(=O)CC(C)=O [Succinylacetone Methyl Ester, methyl 4-6-dioxoheptanoate]
- IL-2 ([1]; Exp I, 3 μM): 41
- IL-2 ([1]; Exp I, 9 μM): 28
- IL-2 ([1]; Exp I, 27 μM): 25
- IL-2 ([1]; Exp I, 81 μM): 24
- IL-2 ([1]; Exp I, 244 μM): 19
- IL-2 ([1]; Exp I, 733 μM): 14
- IL-2 ([1]; Exp I, 2.2 mM): < 6
- IL-2 ([1]; Exp I, 6.7 mM): < 6
- IL-2 ([1]; Exp I, 20 mM): < 6
- IL-2 ([1]; Exp II, 3 μM): 34
- IL-2 ([1]; Exp II, 9 μM): 38
- IL-2 ([1]; Exp II, 27 μM): 34
- IL-2 ([1]; Exp II, 81 μM): 28
- IL-2 ([1]; Exp II, 244 μM): 28
- IL-2 ([1]; Exp II, 733 μM): 23
- IL-2 ([1]; Exp II, 2.2 mM): < 8
- IL-2 ([1]; Exp II, 6.7 mM): < 8
- IL-2 ([1]; Exp II, 20 mM): < 8
- pIC50 ([1]; Homo sapiens, HT2, read-out: concentration that inhibits IL-2 production by about 50%): ~3.13
- CPM ± SD (human lymphocytes; Exp I, 3 μM): 81740 CPM
- CPM ± SD (human lymphocytes; Exp I, 9 μM): 87101 CPM
- CPM ± SD (human lymphocytes; Exp I, 27 μM): 75211 CPM
- CPM ± SD (human lymphocytes; Exp I, 81 μM): 80182 CPM
- CPM ± SD (human lymphocytes; Exp I, 244 μM): 66159 CPM
- CPM ± SD (human lymphocytes; Exp I, 733 μM): 30535 CPM
- CPM ± SD (human lymphocytes; Exp I, 2.2 mM): 3185 CPM
- CPM ± SD (human lymphocytes; Exp I, 6.7 mM): 89 CPM
- CPM ± SD (human lymphocytes; Exp I, 20 mM): 164 CPM
- CPM ± SD (human lymphocytes; Exp II, 3 μM): 114428 CPM
- CPM ± SD (human lymphocytes; Exp II, 9 μM): 110425 CPM
- CPM ± SD (human lymphocytes; Exp II, 27 μM): 97879 CPM
- CPM ± SD (human lymphocytes; Exp II, 81 μM): 87595 CPM
- CPM ± SD (human lymphocytes; Exp II, 244 μM): 78306 CPM
- CPM ± SD (human lymphocytes; Exp II, 733 μM): 40700 CPM
- CPM ± SD (human lymphocytes; Exp II, 2.2 mM): 33497 CPM
- CPM ± SD (human lymphocytes; Exp II, 6.7 mM): 126 CPM
- CPM ± SD (human lymphocytes; Exp II, 20 mM): 90 CPM
- pIC50 (human lymphocytes; Homo sapiens, Lymphocyte, read-out: concentration for 50% reduction in thymidine uptake): ~3.13
- CPM (human lymphoid cells; Exp I, 247 μM): 87337 CPM
- CPM (human lymphoid cells; Exp I, 740 μM): 67456 CPM
- CPM (human lymphoid cells; Exp I, 2.2 mM): 11778 CPM
- CPM (human lymphoid cells; Exp I, 6.7 mM): 51 CPM
- CPM (human lymphoid cells; Exp I, 20 mM): 64 CPM
- CPM (human lymphoid cells; Exp II, 247 μM): 125345 CPM
- CPM (human lymphoid cells; Exp II, 740 μM): 85447 CPM
- CPM (human lymphoid cells; Exp II, 2.2 mM): 29851 CPM
- CPM (human lymphoid cells; Exp II, 6.7 mM): 62 CPM
- CPM (human lymphoid cells; Exp II, 20 mM): 87 CPM
- inhibition at 740 µM (human lymphoid cells; Exp I, 740 μM): 16.3%
- inhibition at 2200 µM (human lymphoid cells; Exp I, 2.2 mM): 85.4%
- inhibition at 6700 µM (human lymphoid cells; Exp I, 6.7 mM): 9.99%
- inhibition at 20000 µM (human lymphoid cells; Exp I, 20 mM): 99.9%
- inhibition at 740 µM (human lymphoid cells; Exp II, 740 μM): 8.5%
- inhibition at 2200 µM (human lymphoid cells; Exp II, 2.2 mM): 68%
- inhibition at 6700 µM (human lymphoid cells; Exp II, 6.7 mM): 9.99%
- inhibition at 20000 µM (human lymphoid cells; Exp II, 20 mM): 99.9%
- overall arthritis score ([2]; Exp. I (treated from same day), day 14): 2.4 ± 2.5
- overall arthritis score ([2]; Exp. I (treated from same day), day 16): 2.8 ± 2.4
- overall arthritis score ([2]; Exp. I (treated from same day), day 18): 3.4 ± 1.9
- overall arthritis score ([2]; Exp. I (treated from same day), day 20): 6.4 ± 3.6
- overall arthritis score ([2]; Exp. I (treated from same day), day 22): 6.8 ± 4.0
- overall arthritis score ([2]; Exp. I (treated from same day), day 24): 7.2 ± 4.1
- overall arthritis score ([2]; Exp. I (treated from same day), day 26): 6.2 ± 3.7
- overall arthritis score ([2]; Exp. II (treated from day 4), day 14): 1.6 ± 2.6
- overall arthritis score ([2]; Exp. II (treated from day 4), day 16): 2 ± 2.8
- overall arthritis score ([2]; Exp. II (treated from day 4), day 18): 3.2 ± 4.0
- overall arthritis score ([2]; Exp. II (treated from day 4), day 20): 4.0 ± 4.6
- overall arthritis score ([2]; Exp. II (treated from day 4), day 22): 4.8 ± 4.1
- overall arthritis score ([2]; Exp. II (treated from day 4), day 24): 4.8 ± 4.1
- overall arthritis score ([2]; Exp. II (treated from day 4), day 26): 5.6 ± 4.7
- overall arthritis score ([2]; Exp. III (treated from day 14), day 14): 1.2 ± 1.8
- overall arthritis score ([2]; Exp. III (treated from day 14), day 16): 1.4 ± 1.3
- overall arthritis score ([2]; Exp. III (treated from day 14), day 18): 1.4 ± 2.2
- overall arthritis score ([2]; Exp. III (treated from day 14), day 20): 4.8 ± 3.8
- overall arthritis score ([2]; Exp. III (treated from day 14), day 22): 4.4 ± 3.6
- overall arthritis score ([2]; Exp. III (treated from day 14), day 24): 4.4 ± 3.6
- overall arthritis score ([2]; Exp. III (treated from day 14), day 26): 3.0 ± 3.3
- effect on arthritis ([2]; comparison of treatment schedules, in words): most effective when it is administered 14 days after induction of the disease
